The target in one experiment is T1, GCGR (Homo sapiens, UniProt P47871).
T1 construct: expressed in transfected cells; host or cells: HEK-293T
Put plainly: cAMP accumulation, wild-type GCGR. The experiment is classed as cell-based. The settings on record: HEK-293T, 40 min, TR-FRET, mean ± S.E.M. On the procedure: (§1) HEK-293T cells were maintained at 37°C in 5% CO2 incubator and seeded onto 6-well cell […]
(§2) culture plates before transfection. After overnight culture, the cells were transiently transfected […]
(§3) with various constructs using Lipofectamine 2000 transfection reagent (Invitrogen). After 24 h, […]
(§4) the transfected cells were seeded onto 384-microtiter plates at a density of 3,000 cells per well […]
(§5) in stimulation buffer (HBSS supplemented with 5 mM HEPES, 0.1% (w/v) casein and 0.5 mM […]
(§6) 3-isobutyl-1-methylxanthine). Different concentrations of retatrutide in stimulation buffer were […]
(§7) added, and the stimulation lasted for 40 min. The reaction was stopped by addition of cAMP […]
(§8) detection buffer containing Eu-cAMP tracer and ULight-anti-cAMP. Plates were then incubated for […]
(§9) 60 min at RT. Time-resolved FRET signals were measured at 620 nm and 665 nm, respectively, by […]
(§10) an EnVision multilabel plate reader (PerkinElmer). Data were analyzed in GraphPad PRISM 9.5 […]
and all values were normalized to that of the wild-type (WT). […]
(§11) accumulation was measured in wild-type (WT) and single-point mutated GLP-1R, GIPR or […]
of the WT and dose-response curves were analyzed using a three-parameter logistic equation. […]
curves were analyzed using a three-parameter logistic equation to obtain pEC50 and Emax values. […]
(§12) way ANOVA was used to determine statistical difference. N.D., values that could not be determined due […]

Experiment [1] deals with GLP-1R mutants. As to the kind of experiment: cAMP accumulation, single-point mutated GLP-1R. Type of experiment: cell-based, human. Conditions: GLP-1R E138(1.33b)R, relative to WT. On the procedure: as §1, §2, §3, §4, §5, §6, §7, §8, §9, §10
(§13) and all values were normalized to that of the wild-type (WT).
(§14) Supplementary Fig. 5 Effects of receptor mutation on retatrutide-induced cAMP […]
(§15) accumulation. a-c, Signaling profiles of GLP-1R (a), GIPR (b) and GCGR (c) mutants. cAMP […]
as §11
(§16) GCGR expressing HEK-293T cells. cAMP levels were normalized to the maximum response […]
(§17) of the WT and dose-response curves were analyzed using a three-parameter logistic equation.
(§18) Data were generated and graphed as means ± S.E.M. of at least three independent experiments performed in quadruplicate.
(§19) (1 picture or pasted object on this page, not shown here)
(§20) Supplementary Ta b l e S 5 Effects of the ligand-binding pocket residue mutation on retatrutide- […]
(§21) induced cAMP signaling at GLP-1R, GIPR or GCGR. […]
(§22) cAMP levels were normalized to the maximum response of the wild-type (WT) and dose-response […]
(§23) curves were analyzed using a three-parameter logistic equation to obtain pEC50 and Emax values. The […]
(§24) experiments were carried out independently at least three times. Data shown are means ± S.E.M. One- […]
as §12
(§25) to incomplete curve fits. *P< 0.05, **P< 0.01, ***P< 0.001 and ****P<0.0001.
(In general: Cyclic AMP is a second messenger, typically raised through Gs and lowered through Gi signalling.)

Experiment [2] addresses T2, GLP-1R mutants (Homo sapiens, UniProt P43220, W91A).
T2 construct: expressed in transfected cells; host or cells: HEK-293T
As to the kind of experiment: cAMP accumulation, single-point mutated GLP-1R. The experiment is classed as cell-based. The settings on record: GLP-1R W91(ECD)A, HEK-293T, 40 min, TR-FRET, mean ± S.E.M., n at least 3. On the procedure:
as §1, §2, §3, §4, §5, §6, §7, §8, §9, §10, §13, §14, §15, §11, §16, §17, §18, §19, §20, §21, §22, §23, §24, §12, §25

Experiment [3] has as its target T3, GLP-1R mutants (Homo sapiens, UniProt P43220, W39A).
T3 construct: expressed in transfected cells; host or cells: HEK-293T
As to the kind of experiment: cAMP accumulation, single-point mutated GLP-1R. Conditions: GLP-1R W39(ECD)A, HEK-293T, 40 min, TR-FRET, mean ± S.E.M., n at least 3. Type of experiment: cell-based. On the procedure:
as §1, §2, §3, §4, §5, §6, §7, §8, §9, §10, §13, §14, §15, §11, §16, §17, §18, §19, §20, §21, §22, §23, §24, §12, §25

Experiment [4] addresses T4, GLP-1R mutants (Homo sapiens, UniProt P43220, E364A).
T4 construct: expressed in transfected cells; host or cells: HEK-293T
As to the kind of experiment: cAMP accumulation, single-point mutated GLP-1R. The settings on record: GLP-1R E364(6.53b)A, HEK-293T, 40 min, TR-FRET, mean ± S.E.M., n at least 3. The experiment is classed as cell-based. On the procedure: as §1, §2, §3, §4, §5, §6, §7, §8, §9, §10, §13, §14, §15, §11, §16, §17, §18, §19, §20, §21, §22, §23, §24, §12, §25

Experiment [5] deals with T5, GLP-1R mutants (Homo sapiens, UniProt P43220, R299A).
T5 construct: expressed in transfected cells; host or cells: HEK-293T
T5 sequence (P43220 24-463 R299A): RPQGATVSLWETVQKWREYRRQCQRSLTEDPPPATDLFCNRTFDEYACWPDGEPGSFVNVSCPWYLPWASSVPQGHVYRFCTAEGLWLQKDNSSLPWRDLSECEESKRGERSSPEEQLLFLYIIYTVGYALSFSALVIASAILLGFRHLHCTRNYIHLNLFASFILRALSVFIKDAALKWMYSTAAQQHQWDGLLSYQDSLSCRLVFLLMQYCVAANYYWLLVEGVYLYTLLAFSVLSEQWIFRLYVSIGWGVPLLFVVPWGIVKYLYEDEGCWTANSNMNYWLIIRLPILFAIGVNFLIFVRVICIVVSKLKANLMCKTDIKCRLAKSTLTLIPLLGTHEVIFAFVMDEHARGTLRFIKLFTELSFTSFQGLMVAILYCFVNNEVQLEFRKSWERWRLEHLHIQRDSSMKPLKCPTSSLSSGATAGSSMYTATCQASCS
As to the kind of experiment: cAMP accumulation, single-point mutated GLP-1R. Type of experiment: cell-based. Conditions: GLP-1R R299(ECL2)A, HEK-293T, 40 min, TR-FRET, mean ± S.E.M., n at least 3. On the procedure: as §1, §2, §3, §4, §5, §6, §7, §8, §9, §10, §13, §14, §15, §11, §16, §17, §18, §19, §20, §21, §22, §23, §24, §12, §25

Experiment [6] deals with T6, GLP-1R mutants (Homo sapiens, UniProt P43220, E387A).
T6 construct: expressed in transfected cells; host or cells: HEK-293T
T6 sequence (P43220 24-463 E387A): as the sequence (P43220 24-463 R299A) above, with A276R, E364A counted along it
As to the kind of experiment: cAMP accumulation, single-point mutated GLP-1R. Type of experiment: cell-based. Conditions: GLP-1R E387(7.42b)A; HEK-293T, 40 min, TR-FRET; mean ± S.E.M., n at least 3. On the procedure: as §1, §2, §3, §4, §5, §6, §7, §8, §9, §10, §13, §14, §15, §11, §16, §17, §18, §19, §20, §21, §22, §23, §24, §12, §25

Experiment [7] concerns the target T7, GLP-1R mutants (Homo sapiens, UniProt P43220, E138R).
T7 construct: expressed in transfected cells; host or cells: HEK-293T
Put plainly: cAMP accumulation, single-point mutated GLP-1R. Type of experiment: cell-based. Conditions: GLP-1R E138(1.33b)R; HEK-293T, 40 min, TR-FRET; mean ± S.E.M., n at least 3. On the procedure: as §1, §2, §3, §4, §5, §6, §7, §8, §9, §10, §13, §14, §15, §11, §16, §17, §18, §19, §20, §21, §22, §23, §24, §12, §25

Experiment [8] deals with T8, GLP-1R mutants (Homo sapiens, UniProt P43220, Y205A).
T8 construct: expressed in transfected cells; host or cells: HEK-293T
T8 sequence (P43220 24-463 Y205A): as the sequence (P43220 24-463 R299A) above, with Y182A, A276R counted along it
As to the kind of experiment: cAMP accumulation, single-point mutated GLP-1R. Type of experiment: cell-based. Conditions: GLP-1R Y205(2.75b)A, HEK-293T, 40 min, TR-FRET, mean ± S.E.M., n at least 3. On the procedure:
as §1, §2, §3, §4, §5, §6, §7, §8, §9, §10, §13, §14, §15, §11, §16, §17, §18, §19, §20, §21, §22, §23, §24, §12, §25

Experiment [9] deals with T9, GLP-1R mutants (Homo sapiens, UniProt P43220, W214A).
T9 construct: expressed in transfected cells; host or cells: HEK-293T
T9 sequence (P43220 24-463 W214A): as the sequence (P43220 24-463 R299A) above, with W191A, A276R counted along it
As to the kind of experiment: cAMP accumulation, single-point mutated GLP-1R. The experiment is classed as cell-based. Conditions: GLP-1R W214(ECL1)A; HEK-293T, 40 min, TR-FRET; mean ± S.E.M., n at least 3. On the procedure: as §1, §2, §3, §4, §5, §6, §7, §8, §9, §10, §13, §14, §15, §11, §16, §17, §18, §19, §20, §21, §22, §23, §24, §12, §25

Experiment [10] deals with T10, GLP-1R mutants (Homo sapiens, UniProt P43220, Y145Q).
T10 construct: expressed in transfected cells; host or cells: HEK-293T
T10 sequence (P43220 24-463 Y145Q): as the sequence (P43220 24-463 R299A) above, with Y122Q, A276R counted along it
Put plainly: cAMP accumulation, single-point mutated GLP-1R. The experiment is classed as cell-based. Conditions: GLP-1R Y145(1.40b)Q, HEK-293T, 40 min, TR-FRET, mean ± S.E.M., n at least 3. On the procedure: as §1, §2, §3, §4, §5, §6, §7, §8, §9, §10, §13, §14, §15, §11, §16, §17, §18, §19, §20, §21, §22, §23, §24, §12, §25

Usually EC50 stands for the concentration needed to bring the measured effect to its halfway point. Low readings indicate an effect from little substance, high ones a need for much substance.

T4 sequence (P43220 24-463 E364A): as the sequence (P43220 24-463 R299A) above, with A276R, E341A counted along it
T3 sequence (P43220 24-463 W39A): as the sequence (P43220 24-463 R299A) above, with W16A, A276R counted along it
T7 sequence (P43220 24-463 E138R): as the sequence (P43220 24-463 R299A) above, with E115R, A276R counted along it
T1 sequence (P47871 26-477): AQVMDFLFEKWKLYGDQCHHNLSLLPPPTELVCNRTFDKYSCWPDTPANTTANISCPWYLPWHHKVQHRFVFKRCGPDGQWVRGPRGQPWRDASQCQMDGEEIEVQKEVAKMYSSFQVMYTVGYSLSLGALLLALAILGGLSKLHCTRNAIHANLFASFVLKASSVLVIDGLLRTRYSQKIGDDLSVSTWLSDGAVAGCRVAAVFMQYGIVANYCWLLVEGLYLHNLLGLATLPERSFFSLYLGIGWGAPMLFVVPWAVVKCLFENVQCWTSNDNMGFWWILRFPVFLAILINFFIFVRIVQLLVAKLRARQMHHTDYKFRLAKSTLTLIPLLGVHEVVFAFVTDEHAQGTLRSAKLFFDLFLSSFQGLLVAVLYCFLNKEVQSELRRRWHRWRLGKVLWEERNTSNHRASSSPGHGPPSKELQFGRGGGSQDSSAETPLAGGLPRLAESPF
T2 sequence (P43220 24-463 W91A): as the sequence (P43220 24-463 R299A) above, with W68A, A276R counted along it

Consider `CC[C@H](C)[C@H](NC(=O)[C@H](Cc1ccccc1)NC(=O)[C@H](C)NC(=O)C(C)(C)NC(=O)[C@H](CCC(N)=O)NC(=O)[C@H](C)NC(=O)[C@H](CCCCNC(=O)COCCOCCNC(=O)CC[C@H](NC(=O)CCCCCCCCCCCCCCCCCCC(=O)O)C(=O)O)NC(=O)[C@H](CCCCN)NC(=O)[C@H](CC(=O)O)NC(=O)[C@H](CC(C)C)NC(=O)[C@](C)(CC(C)C)NC(=O)[C@@H](NC(=O)[C@H](CO)NC(=O)[C@H](Cc1ccc(O)cc1)NC(=O)[C@H](CC(=O)O)NC(=O)[C@H](CO)NC(=O)[C@@H](NC(=O)[C@H](Cc1ccccc1)NC(=O)[C@@H](NC(=O)CNC(=O)[C@H](CCC(N)=O)NC(=O)C(C)(C)NC(=O)[C@@H](N)Cc1ccc(O)cc1)[C@@H](C)O)[C@@H](C)O)[C@@H](C)CC)C(=O)N[C@@H](CCC(=O)O)C(=O)N[C@@H](Cc1ccc(O)cc1)C(=O)N[C@@H](CC(C)C)C(=O)N[C@@H](CC(C)C)C(=O)N[C@@H](CCC(=O)O)C(=O)NCC(=O)NCC(=O)N1CCC[C@H]1C(=O)N[C@@H](CO)C(=O)N[C@@H](CO)C(=O)NCC(=O)N[C@@H](C)C(=O)N1CCC[C@H]1C(=O)N1CCC[C@H]1C(=O)N1CCC[C@H]1C(=O)N[C@@H](CO)C(N)=O` [retatrutide], for which the EC50 was 7.08 pM at GCGR (GCGR WT, at least 3 independent experiments in quadruplicate); 83.2 pM at GLP-1R mutants [2] (****P < 0.0001); 38.9 pM at GLP-1R mutants [3] (**P < 0.01); 40.7 pM at GLP-1R mutants [4] (***P < 0.001); 41.7 pM on GLP-1R mutants [5] (***P < 0.001); 9.33 pM at GLP-1R mutants [6]. For the same compound, the EC50 is 3.55 pM on GLP-1R mutants [7], 38.9 pM at GLP-1R mutants [8] (**P < 0.01), 5.62 pM at GLP-1R mutants [9] and 355 pM on GLP-1R mutants [10] (****P < 0.0001). Moreover, the “Emax ± S.E.M. (% WT)” value on GCGR (n at least 3) was determined as 100.00 ± 1.46 % WT; at GLP-1R mutants [2], 102.36 ± 4.73 % WT; on GLP-1R mutants [3] it was 101.39 ± 3.58 % WT; at GLP-1R mutants [4] it was 98.84 ± 4.77 % WT; at GLP-1R mutants [5] it was 101.97 ± 3.92 % WT; at GLP-1R mutants [6], 100.40 ± 3.44 % WT. The “Emax ± S.E.M. (% WT)” value at GLP-1R mutants [7] came out at 100.84 ± 3.40 % WT; at GLP-1R mutants [8], 101.35 ± 4.70 % WT; on GLP-1R mutants [9], 100.98 ± 3.27 % WT; at GLP-1R mutants [10] (***P < 0.001) it was 73.89 ± 5.95 % WT. Further, the “change of retatrutide potency by mutation” value in the experiment with GLP-1R mutants [1] is “modestly increased”.

These data come from PMC11255275, “Structural insights into the triple agonism at GLP-1R, GIPR and GCGR manifested by retatrutide” (Cell Discovery, 2024).
